Test results from article PMC6709783, “Structural Basis for Allosteric Ligand Recognition in the Human CC Chemokine Receptor 7” (Cell, 2019).

Experiments:
[1] = molecular target: T1, human CCR7 (Homo sapiens, UniProt P32248, L145W); assay: Thermofluor stability assay (thermal shift, CPM dye) with purified CCR7-L145W; assay type: binding; settings: Figure 4B; for thermo-stabilizing effect on CCR7 (in words): known chemokine receptor ligands tested for selectivity of the pocket
T1 construct: enhanced green fluorescent protein (eGFP) (C); decahistidine-tag (His10) (C); made in house; host or cells: Sf9 insect cells (baculovirus)
T1 sequence (P32248 25-348 L145W): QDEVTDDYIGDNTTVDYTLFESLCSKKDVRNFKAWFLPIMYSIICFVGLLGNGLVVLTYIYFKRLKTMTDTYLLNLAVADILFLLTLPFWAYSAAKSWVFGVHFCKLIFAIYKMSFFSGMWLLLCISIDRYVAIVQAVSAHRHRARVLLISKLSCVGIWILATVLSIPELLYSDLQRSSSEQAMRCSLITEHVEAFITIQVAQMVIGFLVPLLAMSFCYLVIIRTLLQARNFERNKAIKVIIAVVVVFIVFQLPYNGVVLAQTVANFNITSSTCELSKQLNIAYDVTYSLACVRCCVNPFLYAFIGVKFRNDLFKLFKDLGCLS
Procedure: The plate was sealed and incubated for 30 min on ice. A 1:100 (v/v) working solution of the CPM (N-[4-(7-diethylamino-4-methyl-3-coumarinyl)phenyl]maleimide) dye stock (3 mg/mL in DMSO) was prepared and 5.14 μL of this solution were added to each well and mixed thoroughly. Out of each well, 3 × 20 μL were distributed into 0.1 mL Rotor-Gene Q tubes (QIAGEN). […] The gain set was determined at the beginning of the run. The melting temperature (Tm) was calculated from the point of inflection.
All liquid-handling steps were performed using a Bravo automated liquid handling platform and a 96LT head.
Melting temperatures (Tm) in the thermofluor stability assays were calculated and analyzed by automated scripts based on a fit to the Boltzmann equation. Details on significance levels and number of experiments are given in the corresponding figure legends.

[2] = system: CCR5 receptor; settings: ref Knepp et al., 2011; cited from earlier work
[3] = molecular target: T2, CCR7 (Homo sapiens, UniProt P32248); assay: Cellular arrestin recruitment assay (PathHunter eXpress CCR7 CHO-K1 β-Arrestin); assay type: cell-based; settings: agonist concentration used for challenge
T2 construct: host or cells: CHO-K1 (PathHunter eXpress CCR7 β-Arrestin)
T2 sequence (P32248 25-378): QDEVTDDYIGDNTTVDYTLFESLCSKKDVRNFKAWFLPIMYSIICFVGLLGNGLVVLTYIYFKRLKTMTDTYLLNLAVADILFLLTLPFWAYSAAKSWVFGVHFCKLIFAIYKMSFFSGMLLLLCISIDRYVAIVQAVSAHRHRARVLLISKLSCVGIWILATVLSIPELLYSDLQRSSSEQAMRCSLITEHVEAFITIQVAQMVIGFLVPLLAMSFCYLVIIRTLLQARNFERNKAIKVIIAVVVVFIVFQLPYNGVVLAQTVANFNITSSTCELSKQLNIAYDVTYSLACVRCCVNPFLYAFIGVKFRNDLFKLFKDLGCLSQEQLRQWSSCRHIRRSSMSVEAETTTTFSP
From the text: Microplates were read following signal generation with a PerkinElmer Envision™ instrument for chemiluminescent signal detection.

[4] = molecular target: T3, CCR7 in PathHunter eXpress CCR7 CHO-K1 β-Arrestin cells (human, UniProt P32248 25-378); assay: cell-based or functional assay
T3 sequence (looked up): T2 sequence (P32248 25-378)

With `CC(C)Cc1ccc([C@@H](C)C(=O)NS(C)(=O)=O)cc1` [Reparixin] as the molecule, how does the “thermo-stabilizing effect on CCR7 (in words)” value (“thermo-stabilizing effect” below) [1] read?
Its value is “Neither did the CXCR2 antagonist Danirixin nor the CXCR1 and CXCR2 antagonist Reparixin stabilize CCR7”.

For `CCOc1ccc(NC(=O)C2CCN(C3=NS(=O)(=O)C(c4ccc(OC)cc4)=C3C)CC2)cc1` [CS-1], which “stabilizing effect on CCR7” value ([1]; hit from virtual and automated thermofluor screening (50 μM ligand)) is on record?
The value was 2.4 °C.

Which “thermo-stabilizing effect” value [1] does the source give for Maraviroc here?
Its value is “did not affect CCR7”.

What about the “stabilizing effect on CCR5” value [2] of the same molecule?
Its value is “up to 18.9 °C”.

With “CCL19: native chemokine agonist of CCR7 (human CCL19)” as the molecule, how does the “EC80 concentration, arrestin recruitment” value [3] read?
Its value is 57 nM.

Which “thermo-stabilizing effect” value [1] does the source give for `CC1(C)CN2C(CSC(=NC3CCCCC3)NC3CCCCC3)=CSC2=N1` [IT1t] here?
The value was “did not affect CCR7”.

B1: human CCL19 (ligand, UniProt Q99731 22-98, looked up)
chain: GTNDAEDCCLSVTQKPIPGYIVRNFHYLLIKDGCRVPAVVFTTLRGRQLCAPPDQPWVERIIQRLQRTSAKMKRRSS
modifications: radioactive label (2200 Ci/mmole) on the labeled part of the mixture
Which “arrestin recruitment in PathHunter eXpress CCR7 CHO-K1 β-Arrestin cells, dose response of CCL19 (EC50)” value [4] does the source give for B1 here?
Its value is 12 nM.
